Assay results taken from patent US10981917B2, “Heterocyclic compound, its preparation method, and pharmaceutical composition comprising the same” (Daewoong Pharmaceutical Co., Ltd., priority 2017, dated 2021).

These compounds were tested against PRS (prolyl-tRNA synthetase) protein, PRS portion of EPRS (Homo sapiens (Human), UniProt P07814) (assay: PRS enzyme activity inhibition experiment ([3H]proline, liquid scintillation)). Settings: purified PRS protein, 37° C. for 5 to 10 minutes.
Format: biochemical
Outline: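 Values are % inhibition or IC50 ranges (A ≤100 nM, B 100–500 nM, C ≥500 nM) from [3H]proline incorporation measured by liquid scintillation. PRS portion of human EPRS, reacted 5–10 min at 37 °C in pH 7.4 phosphate buffer containing 5 mM ATP and tRNA, compound at 1 μM.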

Chain of PRS (prolyl-tRNA synthetase) protein, PRS portion of EPRS (P07814 1007-1512): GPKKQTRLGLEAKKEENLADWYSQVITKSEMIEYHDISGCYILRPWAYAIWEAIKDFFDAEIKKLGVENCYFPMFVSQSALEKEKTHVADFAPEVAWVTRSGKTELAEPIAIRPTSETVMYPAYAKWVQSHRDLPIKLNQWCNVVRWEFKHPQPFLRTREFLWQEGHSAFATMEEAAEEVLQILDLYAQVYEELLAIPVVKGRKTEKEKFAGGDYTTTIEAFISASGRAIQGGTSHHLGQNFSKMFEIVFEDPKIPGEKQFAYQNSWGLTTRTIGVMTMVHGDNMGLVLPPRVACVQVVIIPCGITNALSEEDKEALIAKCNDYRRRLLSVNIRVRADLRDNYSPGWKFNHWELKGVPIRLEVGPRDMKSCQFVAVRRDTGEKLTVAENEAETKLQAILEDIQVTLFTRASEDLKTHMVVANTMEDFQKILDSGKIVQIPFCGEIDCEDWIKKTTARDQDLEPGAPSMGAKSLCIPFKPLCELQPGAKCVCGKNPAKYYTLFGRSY

IC50, ≥ 0.5 µM:
C/C(=C\[C@H]1NCCC[C@@H]1O)Cn1c(CO)nc2cc(Cl)c(Cl)cc21 [Example 224, (2R,3S)-2-((E)-3-(5,6-dichloro-2-(hydroxymethyl)-1H-benzo[d]imidazol-1-yl)-2-methylprop-1-en-1-yl)piperidin-3-ol]
O[C@H]1CCCN[C@@H]1C#CCn1cnc2cc(Cl)c(Cl)cc21 [Example 225, (2R,3S)-2-(3-(5,6-dichloro-1H-benzo[d]imidazol-1-yl)prop-1-yn-1-yl)piperidin-3-ol]
Cc1c(Br)ccc2c1ncn2CC#C[C@H]1NCCC[C@@H]1O [Example 226, (2R,3S)-2-(3-(5-bromo-4-methyl-1H-benzo[d]imidazol-1-yl)prop-1-yn-1-yl)piperidin-3-ol]
Cc1c(Cl)ccc2c1ncn2CC#C[C@H]1NCCC[C@@H]1O [Example 227, (2R,3S)-2-(3-(5-chloro-4-methyl-1H-benzo[d]imidazol-1-yl)prop-1-yn-1-yl)piperidin-3-ol]
O[C@H]1CCCN[C@@H]1C#CCn1cnc2cc(Br)c(Br)cc21 [Example 228, (2R,3S)-2-(3-(5,6-dibromo-1H-benzo[d]imidazol-1-yl)prop-1-yn-1-yl)piperidin-3-ol]
Cc1c(F)ccc2c1ncn2CC#C[C@H]1NCCC[C@@H]1O [Example 229, (2R,3S)-2-(3-(5-fluoro-4-methyl-1H-benzo[d]imidazol-1-yl)prop-1-yn-1-yl)piperidin-3-ol]
O[C@H]1CCN[C@@H]1/C=C/Cn1cnc2cc(Cl)c(Cl)cc21 [Example 230, (2R,3S)-2-((E)-3-(5,6-dichloro-1H-benzo[d]imidazol-1-yl)prop-1-en-1-yl)pyrrolidin-3-ol]
